Where a SMILES comes first, the peptide text is derived from it. Bridges are numbered along the chain shown (N, C = ends).
What was measured:
Assay in all cases: BROMOscan competition binding assay (BromoMAX, Eurofins DiscoverX)
BRD2(1) = molecular target: T1, BRD2(1) (Homo sapiens, UniProt P25440); conditions: for Percent Control BRD2(1): compound concentration 1000 nM, lower percentage control = stronger affinity
T1 construct: BRD2(1); purchased Eurofins DiscoverX (BROMOscan, BromoMAX)

BRD2(2) = molecular target: T2, BRD2(2) (Homo sapiens, UniProt P25440); conditions: for Percent Control BRD2(2): compound concentration 1000 nM, lower percentage control = stronger affinity
T2 construct: BRD2(2); purchased Eurofins DiscoverX (BROMOscan, BromoMAX)
T2 sequence (P25440 344-455 limits assumed): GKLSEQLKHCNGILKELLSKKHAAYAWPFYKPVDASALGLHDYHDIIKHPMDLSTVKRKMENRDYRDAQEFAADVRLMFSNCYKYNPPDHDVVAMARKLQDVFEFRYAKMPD

BRD3(1) = molecular target: T3, BRD3(1) (Homo sapiens, UniProt Q15059); conditions: for Percent Control BRD3(1): compound concentration 1000 nM, lower percentage control = stronger affinity
T3 construct: BRD3(1); purchased Eurofins DiscoverX (BROMOscan, BromoMAX)
T3 sequence (Q15059 24-144 limits assumed): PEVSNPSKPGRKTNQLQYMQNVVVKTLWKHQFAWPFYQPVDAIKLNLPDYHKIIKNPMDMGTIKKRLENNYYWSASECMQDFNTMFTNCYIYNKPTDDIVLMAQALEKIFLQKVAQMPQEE

BRD3(2) = molecular target: T4, BRD3(2) (Homo sapiens, UniProt Q15059); conditions: for Percent Control BRD3(2): compound concentration 1000 nM, lower percentage control = stronger affinity
T4 construct: BRD3(2); purchased Eurofins DiscoverX (BROMOscan, BromoMAX)
T4 sequence (Q15059 306-416 limits assumed): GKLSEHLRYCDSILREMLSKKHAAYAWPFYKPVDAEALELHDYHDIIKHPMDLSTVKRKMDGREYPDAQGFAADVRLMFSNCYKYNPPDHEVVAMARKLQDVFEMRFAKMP

BRD7 = molecular target: T5, BRD7 (Homo sapiens, UniProt Q9NPI1); conditions: for Percent Control BRD7: compound concentration 1000 nM, lower percentage control = stronger affinity
T5 construct: purchased Eurofins DiscoverX (BROMOscan, BromoMAX)
T5 sequence (Q9NPI1 1-651): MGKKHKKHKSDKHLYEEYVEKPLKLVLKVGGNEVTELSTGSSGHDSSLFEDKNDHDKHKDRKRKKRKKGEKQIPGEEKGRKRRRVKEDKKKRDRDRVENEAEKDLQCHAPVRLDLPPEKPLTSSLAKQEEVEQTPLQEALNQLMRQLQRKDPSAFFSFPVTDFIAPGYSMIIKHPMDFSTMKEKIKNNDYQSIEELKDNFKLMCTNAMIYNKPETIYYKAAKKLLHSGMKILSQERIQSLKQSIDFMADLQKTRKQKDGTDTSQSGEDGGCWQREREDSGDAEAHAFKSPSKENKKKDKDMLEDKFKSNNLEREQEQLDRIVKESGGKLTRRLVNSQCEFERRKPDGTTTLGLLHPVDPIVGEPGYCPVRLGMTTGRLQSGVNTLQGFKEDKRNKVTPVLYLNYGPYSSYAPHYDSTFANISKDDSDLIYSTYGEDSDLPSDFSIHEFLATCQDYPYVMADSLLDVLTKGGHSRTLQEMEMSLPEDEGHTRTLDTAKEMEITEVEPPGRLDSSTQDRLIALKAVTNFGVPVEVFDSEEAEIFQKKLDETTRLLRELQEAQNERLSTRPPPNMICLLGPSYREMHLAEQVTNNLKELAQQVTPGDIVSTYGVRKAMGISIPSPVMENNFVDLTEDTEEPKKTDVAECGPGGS

BRDT(1) = molecular target: T6, BRDT(1) (Homo sapiens, UniProt Q58F21); conditions: for Percent Control BRDT(1): compound concentration 1000 nM, lower percentage control = stronger affinity
T6 construct: BRDT(1); purchased Eurofins DiscoverX (BROMOscan, BromoMAX)

BRDT(2) = molecular target: T7, BRDT(2) (Homo sapiens, UniProt Q58F21); conditions: for Percent Control BRDT(2): compound concentration 1000 nM, lower percentage control = stronger affinity
T7 construct: BRDT(2); purchased Eurofins DiscoverX (BROMOscan, BromoMAX)

BRPF1 = molecular target: T8, BRPF1 (Homo sapiens, UniProt P55201); conditions: for Percent Control BRPF1: compound concentration 1000 nM, lower percentage control = stronger affinity
T8 construct: purchased Eurofins DiscoverX (BROMOscan, BromoMAX)
T8 sequence (P55201 1-1214): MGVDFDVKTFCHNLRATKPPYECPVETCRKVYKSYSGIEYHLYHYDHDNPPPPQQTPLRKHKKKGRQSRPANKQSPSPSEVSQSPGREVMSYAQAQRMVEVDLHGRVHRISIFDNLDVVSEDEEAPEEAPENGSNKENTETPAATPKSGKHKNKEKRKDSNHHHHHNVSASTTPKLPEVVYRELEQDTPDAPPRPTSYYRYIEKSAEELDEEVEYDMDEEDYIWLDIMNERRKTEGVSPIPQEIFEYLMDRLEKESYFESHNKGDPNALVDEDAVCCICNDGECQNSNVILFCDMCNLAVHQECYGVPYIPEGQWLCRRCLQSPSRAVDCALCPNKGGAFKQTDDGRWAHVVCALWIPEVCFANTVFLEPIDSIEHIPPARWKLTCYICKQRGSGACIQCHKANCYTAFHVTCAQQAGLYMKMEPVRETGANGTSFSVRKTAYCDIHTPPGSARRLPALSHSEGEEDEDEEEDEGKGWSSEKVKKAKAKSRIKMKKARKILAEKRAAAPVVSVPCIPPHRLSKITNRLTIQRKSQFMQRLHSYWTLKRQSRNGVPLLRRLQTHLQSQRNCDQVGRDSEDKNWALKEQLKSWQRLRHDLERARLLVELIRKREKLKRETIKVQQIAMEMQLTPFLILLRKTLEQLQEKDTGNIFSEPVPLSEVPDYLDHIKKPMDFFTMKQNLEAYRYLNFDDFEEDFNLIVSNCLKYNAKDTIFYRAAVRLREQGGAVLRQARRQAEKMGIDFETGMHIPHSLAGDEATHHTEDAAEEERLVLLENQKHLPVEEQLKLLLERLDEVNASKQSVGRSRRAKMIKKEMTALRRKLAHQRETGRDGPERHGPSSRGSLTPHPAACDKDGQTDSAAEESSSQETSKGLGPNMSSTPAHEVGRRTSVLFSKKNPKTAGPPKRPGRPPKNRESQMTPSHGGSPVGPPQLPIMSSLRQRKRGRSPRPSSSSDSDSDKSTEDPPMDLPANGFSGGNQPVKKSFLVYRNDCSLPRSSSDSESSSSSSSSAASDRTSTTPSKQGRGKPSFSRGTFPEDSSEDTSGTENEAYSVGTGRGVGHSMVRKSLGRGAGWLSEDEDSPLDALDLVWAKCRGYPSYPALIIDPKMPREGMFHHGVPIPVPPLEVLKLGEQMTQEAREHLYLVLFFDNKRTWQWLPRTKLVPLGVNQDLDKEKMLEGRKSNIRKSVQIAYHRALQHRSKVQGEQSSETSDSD

FALZ = molecular target: T9, FALZ (Homo sapiens, UniProt Q12830); conditions: for Percent Control FALZ: compound concentration 1000 nM, lower percentage control = stronger affinity
T9 construct: purchased Eurofins DiscoverX (BROMOscan, BromoMAX)

GCN5L2 = molecular target: T10, GCN5L2 (Homo sapiens, UniProt Q92830); conditions: for Percent Control GCN5L2: compound concentration 1000 nM, lower percentage control = stronger affinity
T10 construct: purchased Eurofins DiscoverX (BROMOscan, BromoMAX)
T10 sequence (Q92830 whole entry): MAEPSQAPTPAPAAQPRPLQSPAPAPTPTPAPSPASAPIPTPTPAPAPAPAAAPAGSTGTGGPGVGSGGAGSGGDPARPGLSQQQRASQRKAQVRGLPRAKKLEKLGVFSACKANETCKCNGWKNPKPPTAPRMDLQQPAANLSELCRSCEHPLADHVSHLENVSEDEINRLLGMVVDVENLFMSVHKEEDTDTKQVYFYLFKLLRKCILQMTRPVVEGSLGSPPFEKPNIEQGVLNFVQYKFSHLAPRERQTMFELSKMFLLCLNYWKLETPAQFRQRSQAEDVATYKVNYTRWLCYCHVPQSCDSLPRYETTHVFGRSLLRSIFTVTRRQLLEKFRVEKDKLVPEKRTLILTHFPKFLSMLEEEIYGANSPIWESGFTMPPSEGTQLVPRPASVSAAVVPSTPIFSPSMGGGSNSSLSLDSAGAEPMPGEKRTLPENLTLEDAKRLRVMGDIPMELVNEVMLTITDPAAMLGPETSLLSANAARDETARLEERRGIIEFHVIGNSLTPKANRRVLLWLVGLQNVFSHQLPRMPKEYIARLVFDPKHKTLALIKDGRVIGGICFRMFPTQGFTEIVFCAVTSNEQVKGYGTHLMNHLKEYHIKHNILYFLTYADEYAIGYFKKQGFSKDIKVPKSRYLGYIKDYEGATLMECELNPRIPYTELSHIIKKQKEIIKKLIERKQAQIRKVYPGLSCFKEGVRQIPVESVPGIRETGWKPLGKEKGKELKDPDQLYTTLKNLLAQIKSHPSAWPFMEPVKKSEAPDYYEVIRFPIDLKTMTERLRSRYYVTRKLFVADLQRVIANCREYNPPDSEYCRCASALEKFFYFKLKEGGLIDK

PCAF = molecular target: T11, PCAF (Homo sapiens, UniProt Q92831); conditions: for Percent Control PCAF: compound concentration 1000 nM, lower percentage control = stronger affinity
T11 construct: purchased Eurofins DiscoverX (BROMOscan, BromoMAX)
T11 sequence (Q92831 whole entry): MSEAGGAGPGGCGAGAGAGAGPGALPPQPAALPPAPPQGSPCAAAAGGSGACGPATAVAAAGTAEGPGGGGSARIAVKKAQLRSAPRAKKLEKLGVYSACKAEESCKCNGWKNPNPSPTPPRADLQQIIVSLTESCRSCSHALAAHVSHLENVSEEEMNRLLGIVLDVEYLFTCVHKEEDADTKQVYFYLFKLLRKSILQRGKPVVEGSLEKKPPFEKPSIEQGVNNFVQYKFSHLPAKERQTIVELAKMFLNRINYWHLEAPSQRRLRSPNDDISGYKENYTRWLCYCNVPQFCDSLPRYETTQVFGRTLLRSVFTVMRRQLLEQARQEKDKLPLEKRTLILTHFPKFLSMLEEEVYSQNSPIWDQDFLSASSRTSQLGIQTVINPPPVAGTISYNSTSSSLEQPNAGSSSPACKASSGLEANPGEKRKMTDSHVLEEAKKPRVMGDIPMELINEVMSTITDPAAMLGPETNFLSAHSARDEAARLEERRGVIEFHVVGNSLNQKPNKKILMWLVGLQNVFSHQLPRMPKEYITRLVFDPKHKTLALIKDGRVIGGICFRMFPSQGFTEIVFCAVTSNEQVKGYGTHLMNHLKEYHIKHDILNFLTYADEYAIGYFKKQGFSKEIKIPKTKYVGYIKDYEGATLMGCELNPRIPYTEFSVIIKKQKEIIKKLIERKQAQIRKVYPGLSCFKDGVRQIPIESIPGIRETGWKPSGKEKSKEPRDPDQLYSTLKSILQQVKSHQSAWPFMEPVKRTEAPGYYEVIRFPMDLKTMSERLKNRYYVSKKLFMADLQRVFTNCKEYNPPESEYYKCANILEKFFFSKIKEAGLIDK

TAF1L(2) = molecular target: T12, TAF1L(2) (Homo sapiens, UniProt Q8IZX4); conditions: for Percent Control TAF1L(2): compound concentration 1000 nM, lower percentage control = stronger affinity
T12 construct: TAF1L(2); purchased Eurofins DiscoverX (BROMOscan, BromoMAX)
T12 sequence (Q8IZX4 1519-1654 limits assumed): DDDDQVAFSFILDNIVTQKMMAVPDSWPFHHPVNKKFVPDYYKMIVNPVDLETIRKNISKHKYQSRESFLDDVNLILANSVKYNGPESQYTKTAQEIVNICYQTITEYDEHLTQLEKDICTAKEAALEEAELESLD

T1 sequence (P25440 71-194 limits assumed): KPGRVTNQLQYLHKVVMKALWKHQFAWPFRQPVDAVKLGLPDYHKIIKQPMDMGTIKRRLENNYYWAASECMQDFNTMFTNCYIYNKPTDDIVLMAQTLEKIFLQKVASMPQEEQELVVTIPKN

Compound	Percent Control BRD2(1) (BRD2(1))	Percent Control BRD2(2) (BRD2(2))	Percent Control BRD3(1) (BRD3(1))	Percent Control BRD3(2) (BRD3(2))	Percent Control BRD7 (BRD7)	Percent Control BRDT(1) (BRDT(1))	Percent Control BRDT(2) (BRDT(2))	Percent Control BRPF1 (BRPF1)	Percent Control FALZ (FALZ)	Percent Control GCN5L2 (GCN5L2)	Percent Control PCAF (PCAF)	Percent Control TAF1L(2) (TAF1L(2))	also measured
CC[C@H](C)[C@@H]1NC(=O)[C@H]([C@@H](C)O)NC(=O)[C@H](CCCCN)NC(=O)[C@H](Cc2c[nH]c3ccccc23)NC(=O)CSC[C@@H](C(N)=O)NC(=O)[C@H](CCC(N)=O)NC(=O)[C@H](CCCCNC(C)=O)NC(=O)[C@H]([C@@H](C)O)NC(=O)[C@H](CCCNC(=N)N)NC(=O)[C@H](Cc2c[nH]c3ccccc23)NC(=O)[C@H]([C@@H](C)O)NC(=O)[C@H](CCCCNC(C)=O)NC(=O)CNC(=O)[C@H](CCCCNC(C)=O)NC1=O [3.1B] ({CH2CO}-WKTIK(Ac)GK(Ac)TWRTK(Ac)QC-NH2; thioether N-14)	21%	100%	1.4%	100%	99%	0%	100%	100%	73%	100%	94%	100%	–
CC[C@H](C)[C@H](NC(=O)[C@H](CCCNC(=N)N)NC(=O)[C@H](CCCCNC(C)=O)NC(=O)[C@H](CCCNC(=N)N)NC(=O)[C@H](CC(C)C)NC(=O)[C@@H]1CSCC(=O)N[C@@H](Cc2c[nH]c3ccccc23)C(=O)N[C@@H](CCCCNC(C)=O)C(=O)NCC(=O)N[C@@H](Cc2ccc(O)cc2)C(=O)N[C@@H](CC(C)C)C(=O)N1)C(=O)N[C@@H](CCC(N)=O)C(=O)N[C@@H](CCCNC(=N)N)C(=O)N[C@H](C(=O)N[C@@H](Cc1ccc(O)cc1)C(=O)N[C@@H](CC(N)=O)C(N)=O)[C@@H](C)O [4.2C] ({CH2CO}-WK(Ac)GYLCLRK(Ac)RIQRTYN-NH2; thioether N-6)	–	–	–	–	–	–	–	–	–	–	–	–	percent of control binding at 1 µM (BRD2(1)): 85%; remaining binding at 1 µM (BRD2(2); read-out: Percent Control BRD2(2)): 17%; remaining binding at 1 µM (BRD3(1); read-out: Percent Control BRD3(1)): 100%; remaining binding at 1 µM (BRD3(2); read-out: Percent Control BRD3(2)): 96%; remaining binding at 1 µM (BRD7; read-out: Percent Control BRD7): 97%; remaining binding at 1 µM (BRDT(1); read-out: Percent Control BRDT(1)): 85%; percent of control binding at 1 µM (BRDT(2)): 92%; remaining binding at 1 µM (BRPF1; read-out: Percent Control BRPF1): 100%; remaining binding at 1 µM (FALZ; read-out: Percent Control FALZ): 96%; percent of control binding at 1 µM (GCN5L2): 96%; percent of control binding at 1 µM (PCAF): 100%; remaining binding at 1 µM (TAF1L(2); read-out: Percent Control TAF1L(2)): 100%
CC[C@H](C)[C@@H]1NC(=O)[C@H](Cc2c[nH]c3ccccc23)NC(=O)[C@H](Cc2c[nH]c3ccccc23)NC(=O)CSC[C@@H](C(N)=O)NC(=O)CNC(=O)[C@H](CCCCNC(C)=O)NC(=O)[C@H](CCCCN)NC(=O)[C@H](C(C)C)NC(=O)[C@H](CCCCNC(C)=O)NC(=O)[C@@H]2CCCN2C(=O)[C@H]([C@@H](C)CC)NC1=O [3.1C] ({CH2CO}-WWIIPK(Ac)VKK(Ac)GC-NH2; thioether N-11)	2.4%	0.35%	0%	13%	96%	0%	4.9%	100%	93%	100%	96%	100%	–
